# From patent publication US9040542B2, “Solid forms of gyrase inhibitor (R)-1-ethyl-3-[6-fluoro-5-[2-(1-hydroxy-1-methyl-ethyl)pryimidin-5-yl]-7-(tetrahydrofuran-2-yl)-1H-benzimidazol-2-yl]urea” (priority 2011, dated 2015)
# Key:
# [1] = tested on: Enterococcus faecium; experiment: MIC90 panel, Protocol #1 microdilution broth; type: cell-based; details: 33 isolates
# [2] = tested on: Streptococcus pneumoniae; experiment: MIC90 panel, Protocol #1 microdilution broth; type: cell-based; details: 67 isolates
# [3] = tested on: Bacillus cereus ATCC 14579; experiment: MIC, Protocol #1 microdilution broth; type: cell-based
# [4] = tested on: M. abscessus MC 6025; experiment: MIC, Protocol #4 Mycobacterium species; type: cell-based
# [5] = tested on: M. abscessus MC 6136; experiment: MIC, Protocol #4 Mycobacterium species; type: cell-based
# [6] = tested on: Enterococcus faecalis; experiment: MIC90 panel, Protocol #1 microdilution broth; type: cell-based; details: 34 isolates
# [7] = tested on: M. tuberculosis Erdman ATCC 35801; experiment: Protocol #5 Mycobacterium tuberculosis Serum Shift MIC Assay; type: cell-based
# [8] = tested on: Bacteroides fragilis; experiment: MIC90 panel, Protocol #3 agar dilution; type: cell-based; details: 25 isolates
# [9] = tested on: N. nova 10; experiment: MIC, Protocol #4 Mycobacterium species; type: cell-based
# [10] = tested on: Enterococcus faecium ATCC 49624; experiment: MIC, Protocol #1 microdilution broth; type: cell-based
# [11] = tested on: M. abscessus MC 5922; experiment: MIC, Protocol #4 Mycobacterium species; type: cell-based
# [12] = tested on: Neisseria gonorrhoeae ATCC 49226; experiment: MIC, Protocol #3 agar dilution; type: cell-based
# [13] = tested on: Neisseria gonorrhoeae ATCC 35541; experiment: MIC, Protocol #3 agar dilution; type: cell-based
# [14] = tested on: Staphylococcus aureus; experiment: MIC90 panel, Protocol #1 microdilution broth; type: cell-based; details: 67 isolates
# [15] = tested on: M. tuberculosis H37Rv ATCC 25618; experiment: MIC, Protocol #4 Mycobacterium species; type: cell-based
# [16] = tested on: Pseudomonas aeruginosa PAO750; experiment: MIC, Protocol 2 microdilution broth, Gram negatives; type: cell-based
# Text: (§1) The specific protocols used were as follows:
# (§2) Drug dilutions, inoculation, MIC determination: • 1.
# [17] = tested on: Escherichia coli CHE30; experiment: as above; type: cell-based
# Text: as §1, §2
# [18] = tested on: M. abscessus MC 6005; experiment: MIC, Protocol #4 Mycobacterium species; type: cell-based
# [19] = tested on: Moraxella catarrhalis; experiment: MIC90 panel, Protocol 2 microdilution broth; type: cell-based; details: 26 isolates
# Text: as §1, §2
# [20] = tested on: Proteus mirabilis; experiment: MIC90 panel, Protocol 2 microdilution broth; type: cell-based; details: 12 isolates
# Text: as §1, §2
# [21] = tested on: Klebsiella pneumoniae; experiment: MIC90 panel, Protocol 2 microdilution broth; type: cell-based; details: 12 isolates
# Text: as §1, §2
# [22] = tested on: Escherichia coli; experiment: MIC90 panel, Protocol 2 microdilution broth; type: cell-based; details: 12 isolates
# Text: as §1, §2
# [23] = tested on: Haemophilus influenzae; experiment: MIC90 panel, Protocol 2 microdilution broth; type: cell-based; details: 55 isolates
# Text: as §1, §2
# [24] = tested on: Pseudomonas aeruginosa; experiment: MIC90 panel, Protocol 2 microdilution broth; type: cell-based; details: 12 isolates
# Text: as §1, §2
# [25] = tested on: Enterobacter cloacae; experiment: MIC90 panel, Protocol 2 microdilution broth; type: cell-based; details: 12 isolates
# Text: as §1, §2
# [26] = tested on: Acinetobacter baumannii; experiment: MIC90 panel, Protocol 2 microdilution broth; type: cell-based; details: 12 isolates
# Text: as §1, §2
# [27] = tested on: M. abscessus BB3; experiment: MIC, Protocol #4 Mycobacterium species; type: cell-based
# [28] = tested on: M. abscessus BB2; experiment: MIC, Protocol #4 Mycobacterium species; type: cell-based
# [29] = tested on: M. abscessus BB6; experiment: MIC, Protocol #4 Mycobacterium species; type: cell-based
# [30] = tested on: Bacillus subtilis ATCC 6638; experiment: MIC, Protocol #1 microdilution broth; type: cell-based
# [31] = tested on: M. abscessus MC 5960; experiment: MIC, Protocol #4 Mycobacterium species; type: cell-based
# [32] = tested on: Clostridium difficile; experiment: MIC90 panel, Protocol #3 agar dilution; type: cell-based; details: 16 isolates
# [33] = tested on: Moraxella catarrhalis ATCC 25238; experiment: MIC, Protocol 2 microdilution broth, Gram negatives; design: unit not given beside the values
# [34] = tested on: M. kansasii 379; experiment: MIC, Protocol #4 Mycobacterium species; type: cell-based
# [35] = tested on: M. abscessus MC 6142; experiment: MIC, Protocol #4 Mycobacterium species; type: cell-based
# [36] = tested on: Peptostreptococcus spp.; experiment: MIC90 panel, Protocol #3 agar dilution; type: cell-based; details: 11 isolates
# [37] = tested on: Staphylococcus aureus ATCC 29213; experiment: MIC, Protocol #1 microdilution broth; type: cell-based
# [38] = tested on: M. abscessus MC 6153; experiment: MIC, Protocol #4 Mycobacterium species; type: cell-based
# [39] = tested on: M. abscessus BB8; experiment: MIC, Protocol #4 Mycobacterium species; type: cell-based
structure (smiles),measurement,setting,value
"CCNC(=O)Nc1nc2cc(-c3cnc(C(C)(C)O)nc3)c(F)c([C@H]3CCCO3)c2[nH]1 [Compound 24, 1-ethyl-3-[6-fluoro-5-[2-(1-hydroxy-1-methyl-ethyl)pyrimidin-5-yl]-7-[(2R)-tetrahydrofuran-2-yl]-1H-benzimidazol-2-yl]urea]",MIC90,[1],0.12 mg/L
same,MIC Range,[1],0.003 to 0.25 mg/L
same,MIC90,[2],0.015 mg/L
same,MIC Range,[2],0.008 to 0.03 mg/L
same,MIC,[3],0.031 mg/L
same,MIC,[4],0.75 mg/L
same,MIC,[5],0.5 mg/L
same,MIC90,[6],0.06 mg/L
same,MIC Range,[6],0.015 to 0.12 mg/L
same,MIC,[7]; M. tuberculosis Erdman ATCC 35801,0.03 mg/L
same,MIC,[7]; M. tuberculosis Erdman ATCC 35801 with Mouse Serum,0.5 mg/L
same,MIC90,[8],16 mg/L
same,MIC Range,[8],1 to 16 mg/L
same,MIC,[9],1 mg/L
same,MIC,[10]; Enterococcus faecium ATCC 49624,0.11 mg/L
same,MIC,[10]; Enterococcus faecium ATCC 49624 with Laked Horse Blood,0.11 mg/L
same,MIC,[11],0.25 mg/L
same,MIC,[12],1 mg/L
same,MIC,[13],0.42 mg/L
same,MIC90,[14],0.03 mg/L
same,MIC Range,[14],0.008 to 0.06 mg/L
same,MIC,[15],0.015 mg/L
same,MIC,[16],0.25 mg/L
same,MIC,[17],8 mg/L
same,MIC,[18],1 mg/L
same,MIC90,[19],0.03 mg/L
same,MIC Range,[19],≦0.004-0.03 μg/ml
same,MIC90,[20],> 8 mg/L
same,MIC90,[21],> 8 mg/L
same,MIC90,[22],> 8 mg/L
same,MIC90,[23],1 mg/L
same,MIC Range,[23],0.06 to 2 mg/L
same,MIC90,[24],> 8 mg/L
same,MIC90,[25],> 8 mg/L
same,MIC90,[26],> 8 mg/L
same,MIC,[27],0.5 mg/L
same,MIC,[28],1 mg/L
same,MIC,[29],0.5 mg/L
same,MIC,[30],2 mg/L
same,MIC,[31],0.5 mg/L
same,MIC Range,[32],0.06 to 4 mg/L
same,MIC90,[32]; Clostridioides difficile,0.25 mg/L
same,MIC,[33],≦0.016
same,MIC,[34],< 0.015 mg/L
same,MIC,[35],0.5 mg/L
same,MIC90,[36],> 16 mg/L
same,MIC,[37]; Staphylococcus aureus ATCC 29213,0.021 mg/L
same,MIC,[37]; Staphylococcus aureus ATCC 29213 with Human Serum,0.15 mg/L
same,MIC,[37]; Staphylococcus aureus ATCC 29213 with Mouse Serum,0.5 mg/L
same,MIC,[37]; Staphylococcus aureus ATCC 29213 with Rat Serum,0.18 mg/L
same,MIC,[38],1 mg/L
same,MIC,[39],0.5 mg/L
